The target of test [1] is T1, Furin (108-574-Tev-Flag-His) enzyme (Homo sapiens, UniProt P09958).
T1 construct: Furin (108-574-Tev-Flag-His) enzyme was expressed and purified from CHO cells; TEV cleavage site (C); FLAG (C); His (C); made in house; host or cells: CHO cells
As to the kind of experiment: Furin enzyme assay. Format: biochemical. The procedure, abridged: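 Compounds ran as 11-point threefold dilutions (0.00017–10 μM final) against 40 pM furin, purified from CHO cells, for 2 h at room temperature. Buffer: 100 mM HEPES pH7.5 with 1 mM CaCl2 and 0.005% Triton X-100. Envision readout. Four-parameter curve gives pXC50.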

For test [2], the target named is T2, furin (endogenous protease) in U20S cells (Homo sapiens, UniProt P09958).
T2 construct: the endogenous protease cleaves GFP; endogenous in cells; host or cells: U2OS cells transduced with a BacMam reporter
The test can be described thus: Furin cell-based assay (image-based, Golgi-targeted GFP with BMP10 furin/PCSK cleavage site).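 Note: Read-out is mean GFP fluorescence of Golgi puncta per cell by high-content imaging, retained when furin inhibited, over an eleven-point 0.00017–10 µM series, four-parameter fit.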 Particulars: 24-hour incubation, read-out: furin golgi cell pXC50 (converted).

Where a name gives a salt, the structure may show the parent alone.

T1 sequence (P09958 108-574): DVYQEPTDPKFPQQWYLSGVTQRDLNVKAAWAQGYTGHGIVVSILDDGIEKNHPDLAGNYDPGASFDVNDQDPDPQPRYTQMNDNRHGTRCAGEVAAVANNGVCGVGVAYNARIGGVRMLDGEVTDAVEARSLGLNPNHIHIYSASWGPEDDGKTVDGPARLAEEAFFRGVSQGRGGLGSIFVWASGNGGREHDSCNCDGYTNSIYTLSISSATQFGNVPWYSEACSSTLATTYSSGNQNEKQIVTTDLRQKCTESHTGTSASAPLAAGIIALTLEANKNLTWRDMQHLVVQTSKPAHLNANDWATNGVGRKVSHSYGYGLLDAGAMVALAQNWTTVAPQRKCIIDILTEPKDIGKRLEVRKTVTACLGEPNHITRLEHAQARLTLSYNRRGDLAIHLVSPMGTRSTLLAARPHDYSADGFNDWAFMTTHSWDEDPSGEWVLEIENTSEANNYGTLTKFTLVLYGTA
T2 sequence (P09958 108-794): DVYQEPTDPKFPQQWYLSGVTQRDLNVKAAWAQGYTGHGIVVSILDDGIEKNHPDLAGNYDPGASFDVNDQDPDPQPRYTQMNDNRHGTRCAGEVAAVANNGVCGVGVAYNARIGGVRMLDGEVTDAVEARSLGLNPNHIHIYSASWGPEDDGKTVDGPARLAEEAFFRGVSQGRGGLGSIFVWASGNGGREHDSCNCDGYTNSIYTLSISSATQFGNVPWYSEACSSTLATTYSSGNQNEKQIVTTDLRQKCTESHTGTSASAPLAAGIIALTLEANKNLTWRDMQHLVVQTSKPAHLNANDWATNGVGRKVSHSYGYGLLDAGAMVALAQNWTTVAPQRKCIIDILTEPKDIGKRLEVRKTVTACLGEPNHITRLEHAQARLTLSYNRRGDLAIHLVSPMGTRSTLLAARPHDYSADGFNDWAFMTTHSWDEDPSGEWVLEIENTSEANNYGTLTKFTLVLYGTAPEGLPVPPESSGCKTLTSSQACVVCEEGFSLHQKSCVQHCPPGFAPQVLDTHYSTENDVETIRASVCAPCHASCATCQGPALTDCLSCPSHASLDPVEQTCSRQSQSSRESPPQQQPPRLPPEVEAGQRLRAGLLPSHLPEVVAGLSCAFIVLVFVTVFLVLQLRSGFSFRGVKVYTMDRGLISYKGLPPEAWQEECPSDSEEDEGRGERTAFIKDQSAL

With `CNC(=O)NCC1CCN(Cc2cc(Oc3cnc(N4CCN(C[C@@H](C)O)CC4)nc3)nc(-c3cc(Cl)cc(Cl)c3)c2)CC1` [Example 310, (R)-1-((1-((2-(3,5-dichlorophenyl)-6-((2-(4-(2-hydroxypropyl)piperazin-1-yl)pyrimidin-5-yl)oxy)pyridin-4-yl)methyl)piperidin-4-yl)methyl)-3-methylurea], the “furin enzyme pIC50” value in test [1] is 9.6. In test [2], the EC50 was 0.00398 µM.
The matching figures for `CC(=O)N[C@H]1[C@@H]2CCN(Cc3cc(Oc4cnc(N5CCN(CCC(C)C(=O)O)CC5)nc4)nc(-c4cc(Cl)cc(Cl)c4)c3)CC[C@@H]21` (stereo partly drawn) [Example 82, 4-(4-(5-((4-(((1R,7S,8r)-8-acetamido-4-azabicyclo[5.1.0]octan-4-yl)methyl)-6-(3,5-dichlorophenyl)pyridin-2-yl)oxy)pyrimidin-2-yl)piperazin-1-yl)-2-methylbutanoic acid]: 9.3 and 0.00501 µM.
Taken in the same sequence, the figures for `CC(CC1CCN(Cc2cc(Oc3cnc(N4CCN(C[C@@H](C)O)CC4)nc3)nc(-c3cc(Cl)cc(Cl)c3)c2)CC1)C(=O)O` (stereo partly drawn) [Example 301, 3-(1-((2-(3,5-dichlorophenyl)-6-((2-(4-((R)-2-hydroxypropyl)piperazin-1-yl)pyrimidin-5-yl)oxy)pyridin-4-yl)methyl)piperidin-4-yl)-2-methylpropanoic acid] were 9.6 and 0.0398 µM.
On to `CC(=O)NCC1CCN(Cc2cc(Oc3cnc(N4CCN(CC(C)(C)O)CC4)nc3)nc(-c3cc(Cl)cc(Cl)c3)c2)CC1` [Example 303, N-((1-((2-(3,5-dichlorophenyl)-6-((2-(4-(2-hydroxy-2-methylpropyl)piperazin-1-yl)pyrimidin-5-yl)oxy)pyridin-4-yl)methyl)piperidin-4-yl)methyl)acetamide], for which the “furin enzyme pIC50” value in test [1] is listed as 9.2. In test [2], the EC50 was 0.00251 µM.
The matching figures for `CN1CCN(c2ncc(Oc3cc(CN4CCC(CCB(O)O)CC4)cc(-c4cc(Cl)cc(Cl)c4)n3)cn2)CC1` [Example 323, (2-(1-((2-(3,5-dichlorophenyl)-6-((2-(4-methylpiperazin-1-yl)pyrimidin-5-yl)oxy)pyridin-4-yl)methyl)piperidin-4-yl)ethyl)boronic acid]: 8.7 and 0.0126 µM.
For the compound `CN1C2CC1CN(c1ncc(Oc3cc(CN4CCC(CC(=O)O)CC4)cc(-c4cc(Cl)cc(Cl)c4)n3)cn1)C2` [Example 228, 2-(1-((2-(3,5-dichlorophenyl)-6-((2-(6-methyl-3,6-diazabicyclo[3.1.1]heptan-3-yl)pyrimidin-5-yl)oxy)pyridin-4-yl)methyl)piperidin-4-yl)acetic acid], in test [1], the “furin enzyme pIC50” value was determined as 8.6. Besides, the EC50 in test [2] was 0.0398 µM.
The matching figures for `CC(=O)NCC1CCN(Cc2cc(Oc3ccc(N4CCN(CCC(N)=O)CC4)nc3)nc(-c3cc(Cl)cc(Cl)c3)c2)CC1` [Example 13, hydrochloride]: 9.1 and 0.00794 µM.
The matching figures for `FC1CCN(Cc2cc(Oc3cnc(N4CCN5CCC4C5)nc3)nc(-c3cc(Cl)cc(Cl)c3)c2)CC1` (centres unmarked) [Example 338, 4-(5-((6-(3,5-dichlorophenyl)-4-((4-fluoropiperidin-1-yl)methyl)pyridin-2-yl)oxy)pyrimidin-2-yl)-1,4-diazabicyclo[3.2.1]octane]: 8 and 0.0126 µM.
The matching figures for `CC(=O)NCC1CCN(Cc2cc(Oc3cnc(N4CCN(CCC(C)S(C)(=O)=O)CC4)nc3)nc(-c3cc(Cl)cc(Cl)c3)c2)CC1` (centres unmarked) [Example 214, N-((1-((2-(3,5-dichlorophenyl)-6-((2-(4-(3-(methylsulfonyl)butyl)piperazin-1-yl)pyrimidin-5-yl)oxy)pyridin-4-yl)methyl)piperidin-4-yl)methyl)acetamide]: 9.1 and 0.00251 µM.
With `COC(=O)NCC1CCN(Cc2cc(Oc3cnc(N4CCNCC4)nc3)nc(-c3cc(Cl)cc(Cl)c3)c2)CC1` [Example 49, Methyl((1-((2-(3,5-dichlorophenyl)-6-((2-(piperazin-1-yl)pyrimidin-5-yl)oxy)pyridin-4-yl)methyl)piperidin-4-yl)methyl)carbamate, 4 hydrochloride], in test [1], the “furin enzyme pIC50” value was 9.1. In test [2], the EC50 is 0.02 µM.
Taken in the same sequence, the figures for `CN1CCN(c2ncc(Oc3cc(CN4CCC(CC(N)=O)CC4)cc(-c4cc(Cl)cc(Cl)c4)n3)cn2)CC1` [Example 142, 2-(1-((2-(3,5-dichlorophenyl)-6-((2-(4-methylpiperazin-1-yl)pyrimidin-5-yl)oxy)pyridin-4-yl)methyl)piperidin-4-yl)acetamide] were 8.8 and 0.00631 µM.
Taken in the same sequence, the figures for `CCN1C[C@@H]2C[C@H]1CN2c1ccc(Oc2cc(CN3CCC(CC(=O)O)CC3)cc(-c3cc(Cl)cc(Cl)c3)n2)nn1` [Example 366, 2-(1-((2-(3,5-dichlorophenyl)-6-((6-((1S,4S)-5-ethyl-2,5-diazabicyclo[2.2.1]heptan-2-yl)pyridazin-3-yl)oxy)pyridin-4-yl)methyl)piperidin-4-yl)acetic acid] were 8.8 and 0.0316 µM.
The matching figures for `Cc1nc(N2CCN(C)CC2)ccc1Oc1nc(-c2cc(Cl)cc(Cl)c2)cc(CN2CCC(CC(=O)O)CC2)c1F` [Example 383, 2-(1-((6-(3,5-dichlorophenyl)-3-fluoro-2-((2-methyl-6-(4-methylpiperazin-1-yl)pyridin-3-yl)oxy)pyridin-4-yl)methyl)piperidin-4-yl)acetic acid]: 8.4 and 0.0631 µM.
Regarding `OCCC1CCN(Cc2cc(Oc3cnc(N4CCNCC4)cn3)nc(-c3cc(Cl)cc(Cl)c3)c2)CC1` [Example 342, 2-(1-((2-(3,5-dichlorophenyl)-6-((5-(piperazin-1-yl)pyrazin-2-yl)oxy)pyridin-4-yl)methyl)piperidin-4-yl)ethanol], the “furin enzyme pIC50” value in test [1] turned out to be 8.7. Also, in test [2], the EC50 was 0.00501 µM.
Taken in the same sequence, the figures for `CN1CCN(c2ncc(Oc3cc(CN4CCC(CNC(=O)NS(C)(=O)=O)CC4)cc(-c4cc(Cl)cc(Cl)c4)n3)cn2)CC1` [Example 326, N-(((1-((2-(3,5-dichlorophenyl)-6-((2-(4-methylpiperazin-1-yl)pyrimidin-5-yl)oxy)pyridin-4-yl)methyl)piperidin-4-yl)methyl)carbamoyl)methanesulfonamide] were 8.7 and 0.0126 µM.
As for `CNCc1cc(Oc2ccc(N3CCCNCC3)nc2)cc(-c2cc(Cl)cc(Cl)c2)c1` [Example 103], the “furin enzyme pIC50” value in test [1] came out at 8.9. Besides, the EC50 in test [2] is 0.0631 µM.
The matching figures for `CC(=O)NCC1CCN(Cc2cc(Oc3cnc(N4CCN(CCO)CC4)nc3)nc(-c3cc(Cl)cc(Cl)c3)c2)CC1` [Example 93, N-((1-((2-(3,5-dichlorophenyl)-6-((2-(4-(2-hydroxyethyl)piperazin-1-yl)pyrimidin-5-yl)oxy)pyridin-4-yl)methyl)piperidin-4-yl)methyl)acetamide, 4 hydrochloride]: 8.9 and 0.00501 µM.
With `CC(=O)N[C@H]1[C@@H]2CCN(Cc3cc(Oc4cnc(N5CCN(CCC(=O)O)CC5)nc4)nc(-c4cc(Cl)cc(Cl)c4)c3)CC[C@@H]21` [Example 367], the “furin enzyme pIC50” value in test [1] turned out to be 10.1. Also, the EC50 in test [2] was 0.00251 µM.
The matching figures for `COCCN1CCN(c2ncc(Oc3cc(CN4CCC(CNC(C)=O)CC4)cc(-c4cc(Cl)cc(Cl)c4)n3)cn2)CC1` [Example 245, N-((1-((2-(3,5-dichlorophenyl)-6-((2-(4-(2-methoxyethyl)piperazin-1-yl)pyrimidin-5-yl)oxy)pyridin-4-yl)methyl)piperidin-4-yl)methyl)acetamide]: 10 and 0.00398 µM.
Taken in the same sequence, the figures for `CC(=O)NCC1CCN(Cc2cc(Oc3cnc(N4CC5CCC(C4)N5)nc3)nc(-c3cc(Cl)cc(Cl)c3)c2)CC1` [Example 335, N-((1-((2-((2-(3,8-diazabicyclo[3.2.1]octan-3-yl)pyrimidin-5-yl)oxy)-6-(3,5-dichlorophenyl)pyridin-4-yl)methyl)piperidin-4-yl)methyl)acetamide] were 9.2 and 0.00126 µM.
Taken in the same sequence, the figures for `CNCc1cc(Oc2ccc(N3CCC(N)CC3)nc2)cc(-c2cc(Cl)cc(Cl)c2)c1` [Example 100, 1-(5-((3′,5′-Dichloro-5-((methylamino)methyl)-[1,1′-biphenyl]-3-yl)oxy)pyridin-2-yl)piperidin-4-amine, 3 hydrochloride] were 8.8 and 0.0794 µM.
As for `CC(CC1CCN(Cc2cc(Oc3ccc(N4CCN(C)CC4)nc3)nc(-c3cc(Cl)cc(Cl)c3)c2)CC1)C(=O)O` (centres unmarked) [Example 213, 3-(1-((2-(3,5-dichlorophenyl)-6-((6-(4-methylpiperazin-1-yl)pyridin-3-yl)oxy)pyridin-4-yl)methyl)piperidin-4-yl)-2-methylpropanoic acid], the “furin enzyme pIC50” value in test [1] was 8.9. Further, the EC50 in test [2] was 0.0251 µM.

The values above are taken from patent US11773078B2, “Furin inhibitors” (Glaxosmithkline Intellectual Property Development Limited, priority 2018, dated 2023).
